{
  "source": "paper PMC10225205",
  "about": "(Cancer Medicine, 2023)",
  "origin": "cited, not measured here",
  "conditions": "cited from earlier work",
  "note": "Read-outs that look alike come from different tables or passages of the source.",
  "data": [
    {"smiles": "COc1cc(OC)cc(N(CCNC(C)C)c2ccc3ncc(-c4cnn(C)c4)nc3c2)c1", "note": "[erdafitinib]", "values": [
      {"measurement": "Most common TEAE", "setting": "in vivo", "result": "hyperphosphatemia"},
      {"measurement": "Most common TEAEs", "setting": "phase 1 multicenter study, advanced solid tumors", "result": "hyperphosphatemia, dry mouth, stomatitis, and asthenia"}
    ]},
    {"smiles": "C=CC(=O)N1CC[C@H](n2nc(C#Cc3cc(OC)cc(OC)c3)c3c(N)ncnc32)C1", "note": "[futibatinib]", "values": [
      {"measurement": "Most common TEAE", "setting": "phase 1, Japanese patients with advanced solid tumors", "result": "hyperphosphatemia"},
      {"measurement": "Most frequently reported TEAEs", "setting": "phase 1 study, advanced solid tumors", "result": "hyperphosphatemia, diarrhea, constipation, and nausea"}
    ]},
    {"smiles": "CCN1CCN(c2ccc(Nc3cc(N(C)C(=O)Nc4c(Cl)c(OC)cc(OC)c4Cl)ncn3)cc2)CC1", "note": "[infigratinib]", "values": [
      {"measurement": "Most commonly reported (>30%) TEAEs", "setting": "global phase 1 study", "result": "hyperphosphatemia, constipation, appetite decreased, stomatitis, diarrhea, nausea, and fatigue"}
    ]}
  ]
}
